Results on 27 compounds are retold here after patent US8637525B2, “Compounds for the reduction of beta-amyloid production” (Bristol-Myers Squibb Company, priority 2009, dated 2014).

Read-outs that look alike come from different tables or passages of the source.

The subject of the assay is Aβ1-42 production. The assay can be described thus: Cellular assay for inhibition of Aβ1-42 production (H4 APP751 SWE clone 8.20). In kind it is cell-based. The note with it: H4 APP751 SWE clone 8.20 cells, 19 h incubation. The essentials: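 H4 cells stably expressing Swedish-mutant APP751 incubated with compound 19 h at 37 °C, 5% CO2. Secreted Aβ42 detected by HTRF with Aβ42 neoepitope antibody 565 (0.8 ng/well) and N-terminal 26D6 (75 ng/well), overnight at 4 °C. IC50 obtained by curve fitting.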

The mark [1] stands for this setting: class symbols, read-out: Activity Rating (Aβ42 cellular IC50).
Where [2] appears, read: 19 h, class symbols, read-out: Activity Rating (Aβ42 cellular IC50).
The mark [3] stands for this setting: 19 h, read-out: Activity Rating (Aβ42 cellular IC50), numeric value.

For `CNc1nc(Nc2ccc(-n3cnc(Cl)c3)c(OC)c2)nc2c1COCC2c1ccc(Cl)cc1` (single isomer, unassigned) [Example 64B, N^2-(4-(4-chloro-1H-imidazol-1-yl)-3-methoxyphenyl)-8-(4-chlorophenyl)-N^4-methyl-7,8-dihydro-5H-pyrano[4,3-d]pyrimidine-2,4-diamine], the half-maximal inhibitory concentration (IC50) under setting [1] was in the range of 10 to 100 nM.

On to `CCNc1nc(Nc2ccc(-n3cnc(C)n3)c(F)c2)nc2c1CN(CC(F)(F)F)CC2c1ccccc1` (stereo not drawn) [Example 145, N4-ethyl-N2-(3-fluoro-4-(3-methyl-1H-1,2,4-triazol-1-yl)phenyl)-8-phenyl-6-(2,2,2-trifluoroethyl)-5,6,7,8-tetrahydropyrido[4,3-d]pyrimidine-2,4-diamine], for which the IC50 under setting [2] lay within 10 to 100 nM.

For the compound `[2H]C([2H])([2H])Nc1nc(Nc2ccc(-n3cnc(Cl)c3)c(OC)c2)nc2c1CCC2c1ccccc1` (single isomer, unassigned) [Example 176A, N^2-(4-(4-Chloro-1H-imidazol-1-yl)-3-methoxyphenyl)-N^4-trideuteromethyl-7-phenyl-6,7-dihydro-5H-cyclopenta[d]pyrimidine-2,4-diamine], under setting [1], the IC50 was 1.5 to 9.9 nM.

Turning to `COc1cc(Nc2nc3c(c(N4C[C@@H](C)O[C@@H](C)C4)n2)CCC3c2ccc(F)cc2)ccc1-n1cnc(Cl)c1` (single isomer, unassigned) [Example 21A], the IC50 under setting [1] was in the range of 10 to 100 nM.

In the case of `CNc1nc(Nc2ccc(-n3ncnc3C)c(F)c2)nc2c1COCC2c1ccc(Cl)cc1` (stereo not drawn) [Example 69, 8-(4-chlorophenyl)-N^2-(3-fluoro-4-(5-methyl-1H-1,2,4-triazol-1-yl)phenyl)-N^4-methyl-7,8-dihydro-5H-pyrano[4,3-d]pyrimidine-2,4-diamine], the IC50 under setting [2] was 10 to 100 nM.

`CNc1nc(Nc2ccc(-n3cnc(Cl)c3)c(OC)c2)nc2c1CCC2c1cc(F)c(F)c(F)c1` (single isomer, unassigned) [Example 103B, N^2-(4-(4-chloro-1H-imidazol-1-yl)-3-methoxyphenyl)-N^4-methyl-7-(3,4,5-trifluorophenyl)-6,7-dihydro-5H-cyclopenta[d]pyrimidine-2,4-diamine]: the IC50 under setting [1] lay within 10 to 100 nM.

On to `COc1cc(Nc2nc3c(c(N4CC[C@@H](F)C4)n2)COCC3c2ccc(OC(F)(F)F)cc2)ccc1-n1cnc(Cl)c1` (stereo partly drawn) [Example 123B], for which the IC50 under setting [3] worked out at 370 nM.

For `CNc1nc(Nc2cc(F)cc(F)c2)nc2c1CCC2c1ccccc1` (stereo not drawn) [Example 219, N2-(3,5-difluorophenyl)-N4-methyl-7-phenyl-6,7-dihydro-5H-cyclopenta[d]pyrimidine-2,4-diamine], the 50% inhibitory concentration (IC50) under setting [2] was more than 1000 nM.

For `CCNc1nc(Nc2ccc(-n3cnc(C)n3)c(F)c2)nc2c1CN(S(C)(=O)=O)CC2c1ccccc1` (stereo not drawn) [Example 139, N4-ethyl-N2-(3-fluoro-4-(3-methyl-1H-1,2,4-triazol-1-yl)phenyl)-6-(methylsulfonyl)-8-phenyl-5,6,7,8-tetrahydropyrido[4,3-d]pyrimidine-2,4-diamine], the IC50 under setting [2] was 10 to 100 nM.

With `COc1cc(Nc2nc3c(c(N(C)C)n2)CCC3c2ccc(F)cc2)ccc1-n1cnc(Cl)c1` (racemic) [Example 46, N^2-(4-(4-Chloro-1H-imidazol-1-yl)-3-methoxyphenyl)-7-(4-fluorophenyl)-N^4,N^4-dimethyl-6,7-dihydro-5H-cyclopenta[d]pyrimidine-2,4-diamine], the IC50 under setting [2] is 1.5 to 9.9 nM.

For the compound `CNc1nc(Nc2ccc(-n3cnc(Cl)c3)c(OC)c2)nc2c1CCCC2c1ccccc1` (stereo not drawn) [Example 203A, N2-(4-(4-chloro-1H-imidazol-1-yl)-3-methoxyphenyl)-N4-methyl-8-phenyl-5,6,7,8-tetrahydroquinazoline-2,4-diamine], the IC50 under setting [1] was 1.5 to 9.9 nM.

Regarding `CNc1nc(Nc2ccc(-n3ncnc3C)c(F)c2)nc2c1CCC2c1ccc(F)cc1` (stereo not drawn) [Example 12, N^2-(3-Fluoro-4-(5-methyl-1H-1,2,4-triazol-1-yl)phenyl)-7-(4-fluorophenyl)-N^4-methyl-6,7-dihydro-5H-cyclopenta[d]pyrimidine-2,4-diamine], the IC50 under setting [2] was in the range of 1.5 to 9.9 nM.

On to `COc1cc(Nc2nc3c(c(N(C)S(C)(=O)=O)n2)CCC3c2ccccc2)ccc1-n1cnc(Cl)c1` (stereo not drawn) [Example 210, N-(2-(4-(4-chloro-1H-imidazol-1-yl)-3-methoxyphenylamino)-7-phenyl-6,7-dihydro-5H-cyclopenta[d]pyrimidin-4-yl)-N-methylmethanesulfonamide], for which, under setting [3], the IC50 worked out at 61 nM.

`CCNc1nc(Nc2ccc(-n3cnc(Cl)c3)c(OC)c2)nc2c1CCN(C)C2c1ccc(F)cc1` (stereo not drawn) [Example 175, N2-(4-(4-chloro-1H-imidazol-1-yl)-3-methoxyphenyl)-N4-ethyl-8-(4-fluorophenyl)-7-methyl-5,6,7,8-tetrahydropyrido[3,4-d]pyrimidine-2,4-diamine]: the IC50 under setting [2] was in the range of 10 to 100 nM.

Take `CNc1nc(Nc2ccc(C#N)cc2)nc2c1CCC2c1ccccc1` (stereo not drawn) [Example 227, 4-(4-(methylamino)-7-phenyl-6,7-dihydro-5H-cyclopenta[d]pyrimidin-2-ylamino)benzonitrile]: the IC50 (read-out: Activity Rating (Aβ42 cellular IC50), numeric value) was 12 nM.

Regarding `COc1cc(Nc2nc3c(c(N(C)C)n2)COCC3c2ccc(Cl)cc2)ccc1-n1cnc(Cl)c1` (stereo not drawn) [Example 65, N^2-(4-(4-chloro-1H-imidazol-1-yl)-3-methoxyphenyl)-8-(4-chlorophenyl)-N^4,N^4-dimethyl-7,8-dihydro-5H-pyrano[4,3-d]pyrimidine-2,4-diamine], the IC50 under setting [2] lay within 10 to 100 nM.

With `COc1cc(Nc2nc3c(c(N4CC(F)(F)C4)n2)COCC3c2ccc(F)cc2)ccc1-n1cnc(Cl)c1` (racemic) [Example 63, N-(4-(4-chloro-1H-imidazol-1-yl)-3-methoxyphenyl)-4-(3,3-difluoroazetidin-1-yl)-8-(4-fluorophenyl)-7,8-dihydro-5H-pyrano[4,3-d]pyrimidin-2-amine], the IC50 under setting [2] was in the range of 10 to 100 nM.

Consider `COc1cc(Nc2nc3c(c(N(C)C)n2)CCC3c2ccc(F)c(F)c2)ccc1-n1cnc(Cl)c1` (single isomer, unassigned) [Example 95B, N^2-(4-(4-chloro-1H-imidazol-1-yl)-3-methoxyphenyl)-7-(3,4-difluorophenyl)-N^4,N^4-dimethyl-6,7-dihydro-5H-cyclopenta[d]pyrimidine-2,4-diamine], for which the IC50 under setting [1] was in the range of 10 to 100 nM.

Regarding `CNc1nc(Nc2ccc(-n3cnc(Cl)c3)c(OC)c2)nc2c1CCC2c1ccc(F)c(F)c1` (single isomer, unassigned) [Example 96A, N^2-(4-(4-chloro-1H-imidazol-1-yl)-3-methoxyphenyl)-7-(3,4-difluorophenyl)-N^4-methyl-6,7-dihydro-5H-cyclopenta[d]pyrimidine-2,4-diamine], the IC50 under setting [2] fell in the range of 1.5 to 9.9 nM.

Consider `COc1cc(Nc2nc(N[C@H](C)C3CC3)c3c(n2)C(c2ccc(C(F)(F)F)cc2)COC3)ccc1-n1cnc(Cl)c1` (stereo partly drawn) [Example 117A, N2-(4-(4-chloro-1H-imidazol-1-yl)-3-methoxyphenyl)-N4-((R)-1-cyclopropylethyl)-8-(4-(trifluoromethyl)phenyl)-7,8-dihydro-5H-pyrano[4,3-d]pyrimidine-2,4-diamine], for which, under setting [1], the IC50 is 10 to 100 nM.

Regarding `COc1cc(Nc2nc3c(c(N4CCC(C(F)(F)F)C4)n2)CCC3c2ccc(F)cc2)ccc1-n1cnc(Cl)c1` (stereo not drawn) [Example 41A, N-(4-(4-chloro-1H-imidazol-1-yl)-3-methoxyphenyl)-7-(4-fluorophenyl)-4-(3-(trifluoromethyl)pyrrolidin-1-yl)-6,7-dihydro-5H-cyclopenta[d]pyrimidin-2-amine], the IC50 under setting [2] was 10 to 100 nM.

Take `CNC1CCN(c2nc(Nc3ccc(-n4cnc(Cl)c4)c(OC)c3)nc3c2CCC3c2ccc(F)cc2)C1` (stereo not drawn) [Example 32, N-(4-(4-chloro-1H-imidazol-1-yl)-3-methoxyphenyl)-7-(4-fluorophenyl)-4-(3-(methylamino)pyrrolidin-1-yl)-6,7-dihydro-5H-cyclopenta[d]pyrimidin-2-amine]: the IC50 under setting [2] is 10 to 100 nM.

In the case of `CNc1nc(Nc2ccc(-n3cnc(C)n3)c(OC)c2)nc2c1COCC2c1ccc(Cl)cc1` (single isomer, unassigned) [Example 71A, 8-(4-chlorophenyl)-N^2-(3-methoxy-4-(3-methyl-1H-1,2,4-triazol-1-yl)phenyl)-N^4-methyl-7,8-dihydro-5H-pyrano[4,3-d]pyrimidine-2,4-diamine], the IC50 under setting [1] was in the range of 1.5 to 9.9 nM.

On to `Cc1ncnn1-c1ccc(Nc2nc3c(c(N(C)C)n2)COCC3c2ccc(Cl)cc2)cc1F` (single isomer, unassigned) [Example 67B, 8-(4-chlorophenyl)-N^2-(3-fluoro-4-(5-methyl-1H-1,2,4-triazol-1-yl)phenyl)-N^4,N^4-dimethyl-7,8-dihydro-5H-pyrano[4,3-d]pyrimidine-2,4-diamine], for which the IC50 under setting [3] stood at 540 nM.

Take `CNc1nc(Nc2ccc(-n3cnc(Cl)c3)c(OC)c2)nc2c1COCC2c1ccc(F)c(F)c1` (stereo not drawn) [Example 115A, N2-(4-(4-chloro-1H-imidazol-1-yl)-3-methoxyphenyl)-8-(3,4-difluorophenyl)-N4-methyl-7,8-dihydro-5H-pyrano[4,3-d]pyrimidine-2,4-diamine]: the IC50 under setting [1] was in the range of 1.5 to 9.9 nM.

As to `COc1cc(Nc2nc3c(c(N4C[C@@H]5C[C@H]4CO5)n2)CCC3c2ccc(F)cc2)ccc1-n1cnc(Cl)c1` (single isomer, unassigned) [Example 18B], under setting [2], the IC50 fell in the range of 10 to 100 nM.

Consider `COc1cc(Nc2nc3c(c(N4CC(Cl)C4)n2)CCC3c2ccccc2)ccc1-n1cnc(Cl)c1` (stereo not drawn) [Example 181A, N-(4-(4-chloro-1H-imidazol-1-yl)-3-methoxyphenyl)-4-(3-chloroazetidin-1-yl)-7-phenyl-6,7-dihydro-5H-cyclopenta[d]pyrimidin-2-amine], for which the half-inhibitory concentration (IC50) under setting [1] was 1.5 to 9.9 nM.

The term IC50 denotes the concentration needed to halve the response being measured.
